Laboratory results as given in patent US6288100A, “Benzimidazole derivatives” (American Home Products Corporation, priority 1995, dated 2001).
Structures can show the parent of a compound that is named as a salt.

Legend:
[1] = test system: porcine aortic smooth muscle cells; assay: Porcine smooth muscle cell antiproliferation, PDGF stimulation (3H thymidine incorporation); type: cell-based; settings: PDGF-stimulated (human recombinant PDGF-AB)
Experimental: (§2) The ability of the compounds of the present invention to inhibit smooth muscle cell proliferation was established using isolated porcine aortic smooth muscle cells in a modification of the procedure of Castellot et al. J. Biol. Chem 257(19) 11256 (1982), as follows:
(§3) Fresh porcine aortas, scrupulously cleansed of fatty tissue, are rinsed in sterile phosphate-buffered saline with 2% antibiotic-antimycotic (100×) liquid (10,000 units of penicillin (base), 10,000 μg of streptomycin (base), and 25 μg of amphotericin B/mL utilizing penicillin G (sodium salt), streptomycin sulfate, and amphotericin B as Fungizone® in 0.85% saline, available from Gibco Laboratories, Grand Island Biological Co., Grand Island, N.Y.). The tissue is then digested in 10-15 mL of an enzyme solution containing collagenase type I, 165 U/mL; elastase type III, 15 U/mL; BSA, 2 mg/mL; and soybean trypsin inhibitor, 0.375 mg/mL, followed by incubation at 37° C. under 5% CO2 atmosphere for 10 to 15 minutes. After this treatment, the outer surface adventitia is removed by peeling with a forceps. The aorta is then longitudinally cut and laid open and the endothelial layer is removed by scraping.
(§4) The medial layer of cells is rinsed in the enzyme solution, and placed in a new 100 mm dish with 10 mL of enzyme solution. The medial layer of cells is minced using a fine pair of scissors and digested for 2-3 hours at 37° C. in 30 mL of fresh enzyme solution. After digestion, the medial tissue is homogenized using a sterile Pasteur pipette with a fire polished tip or an Eppendorf pipetter with a 200-1000 μL sterile pipette tip. The suspension is then centrifuged for 10 minutes at 8000 rpm and the pellet is suspended in 4-6 mL of fresh enzyme solution and plated onto 4-6 100 mm flasks with vented caps. The cells are then allowed to grow to confluence and split using 0.25% trypsin. The cells are evaluated for purity and overall quality using antibody to SMC actin.
(§5) The cells are assayed in early passage (generally passage 3-7) at sub-confluent conditions. Cultures are grown in 16 mm (24 well) multi-well culture dishes in media 199 supplemented with 10% fetal bovine serum and 2% antibiotic/antimycotic. At subconfluence, the cells are placed in a defined serum free, lymphocyte medium (AIM-V; Gibco) for 24-48 hours prior to initiating the experimental protocoL
(§6) The standard test procedure is initiated by addition of the test compound, ^3 H thymidine and serum or a specific growth factor to the serum deprived synchronized cells. Growth factor and serum stimulations are optimized for each cell type. The test compounds are added to each well at 50 fold dilution (20 μL/well) and the plates are incubated for 24-36 hours at 37° C. in 5% CO2 atmosphere. Test compounds are dissolved in 50% ethanol and assayed at 1, 10, and 100 μM. As a control, RG 50872 (Bilder, G. A.; et al., Am. J. Cell Physiol., 1991; 260: C721) is routinely assayed under the conditions of each cell preparation at a concentration of 5 μM.
(§7) At the completion of the experiment, the plates are placed on ice, washed three times with ice cold PBS and incubated in ice cold 10% trichloroacetic acid (TCA) for 30 minutes to remove acid soluble proteins. Each solution is transferred to a scintillation vial containing 0.4N HCl (500 μL/vial to neutralize NaOH) and each well is rinsed two times with water (500 μL) for a total volume of 2 mL/vial.
(§8) Data is quantitated by subjecting the vials to a scintillation counter, in triplicate, for both control and experimental samples. […] Experimental data is obtained from cells maximally stimulated with growth factor or serum and treated with a test compound. (The platelet-derived growth factor used in the assay was human recombinant PDGF-AB purchased from Upstate Biotechnology Inc., Lake Placid, N.Y.). Data is expressed as a percent of control from which IC50 s are determined.

[2] = test system: porcine aortic smooth muscle cells; assay: Porcine smooth muscle cell antiproliferation, serum stimulation (3H thymidine incorporation); type: cell-based; settings: serum-stimulated
Experimental: as §2, §3, §4, §5, §6, §7, §8

[3] = test system: porcine smooth muscle cells; assay: Cytotoxicity, modified MTT assay, % viable cells; type: cell-based; design: dose or concentration left out as unconfirmed; settings: serum-free medium, 24 hours, 37° C.
Experimental: (§1) To distinguish cytotoxicity from the ability of a compound to prevent proliferation, the test compounds were examined using a commercial modification of the MTT assay. Briefly, cells were grown in 24 well plates to 70-80% confluency. The cells were serum deprived for 24-48 hours prior to initiation of the experimental protocol. To insure that the MTT assay monitored toxicity rather than proliferation, the cells were incubated with […] test compound in fresh medium without serum for 24 hours at 37° C. in a humidified CO2 incubator. Upon completion of the compound treatment, MTT indicator dye was added for 4 hours at 37° C. Cells were then solubilized and aliquots from each well were transferred to a 96-well plate for analysis. Absorbance at 570 nm wavelength with a reference wavelength of 630 nm was recorded using an ELISA plate reader.

[4] = Cytotoxicity, modified MTT assay, % viable cells; type: cell-based, porcine; design: dose or concentration left out as unconfirmed; settings: pig, smooth muscle cells, serum-free medium, 37° C.
Experimental: as §1

Compound | IC50 ([1]; Sus scrofa) | inhibition at 20 µM ([2]; Sus scrofa, 20 μM) | viability at 24 h [4] | IC50 ([2]; Sus scrofa) | also measured
4-[5-(Hydroxy-(phenyl)-methyl)-2-propyl -benzoimidazol-1-ylmethyl]-benzoic acid [Example 6] | – | – | – | – | IC50 [1]: 11.2 µM; Porcine Smooth Muscle Cell Antiproliferation, Serum, % Inhibition at 20 μM ([2]; 20 μM): 45.9%; Cytotoxicity, % Viable Cells [3]: 85.5%
CCCc1nc2cc(C(=O)c3ccccc3)ccc2[nH]1 [Example 1, Phenyl-(2-propyl-1H-benzoimidazol-5-yl)-methanone] | 12.9 µM | 39.4% | 80% | – | –
CCCc1nc2cc(C(=O)c3ccccc3)ccc2n1Cc1ccc(C(=O)OCC)cc1 [Example 2, 4-(5-Benzoyl-2-propyl-benzoimidazol-1-ylmethyl) -benzoic acid ethyl ester] | 1.17 µM | – | 100% | 1.04 µM | –
CCCc1nc2ccc(C(=O)c3ccccc3)cc2n1Cc1ccc(C(=O)OCC)cc1 [Example 3, 4-(6-Benzoyl-2-propyl-benzoimidazol-1-ylmethyl) -benzoic acid ethyl ester] | 1.23 µM | – | 100% | 1.58 µM | –
CCCc1nc2ccc(C(=O)c3ccccc3)cc2n1Cc1ccc(C(=O)O)cc1 [Example 4, 4-(6-Benzoyl-2-propyl-benzoimidazol-1-ylmethyl) benzoic acid] | – | 61.8% | 100% | – | Porcine Smooth Muscle Cell Antiproliferation, PDGF, % Inhibition (concentration not given) ([1]; concentration not given): 0%
CCCc1nc2cc(C(=O)c3ccccc3)ccc2n1Cc1ccc(C(=O)O)cc1 [Example 5, 4-(5-Benzoyl-2-propyl-benzoimidazol-1-ylmethyl)-benzoic acid] | 15.9 µM | 41% | 78% | – | –
CCCc1nc2cc(C(O)c3ccccc3)ccc2n1Cc1ccc(C(=O)O)cc1 (stereo not drawn) [Example 7, 4-[5-(Hydroxy-(phenyl)-methyl)-2-propyl-benzoimidazol-1-ylmethyl]-benzoic acid hydrochloride] | 17.6 µM | – | 85% | – | inhibition at 10 µM ([2]; Sus scrofa, 10 μM): 36%
CCCc1nc2cc(C(=O)c3ccccc3)ccc2n1Cc1ccc(Cl)c(Cl)c1 [Example 8, [1-(3,4-Dichloro-benzyl)-2-propyl-1H-benzoimidazol-5-yl]-phenyl-methanone] | 0.096 to 0.465 µM | 90% | 100% | – | –
COc1cc(-c2nc3cc(C(=O)c4ccccc4)ccc3[nH]2)ccc1O [Example 9, [2-(4-Hydroxy-3-methoxy-phenyl)1H-benzoimidazol-5-yl]-phenyl-methanone] | 3.74 to 4.14 µM | – | 100% | 8.03 to 11.4 µM | –
CCCCCCOc1ccc(-c2nc3cc(C(=O)c4ccccc4)ccc3[nH]2)cc1OC [Example 10, [2-(4-Hexyloxy-3-methoxy-phenyl)-1H benzoimidazol-5-yl]phenyl-methanone] | 0.762 µM | – | 100% | 13.5 µM | –
O=C(c1ccccc1)c1ccc2[nH]c(-c3ccc(OC(F)(F)F)cc3)nc2c1 [Example 11, Phenyl-[2-(4-trifluoromethoxy-phenyl)-1H -benzoimidazol-5-yl]methanone] | 7.7 µM | – | 100% | 1.82 µM | –
COc1ccc(Cc2nc3cc(C(=O)c4ccccc4)ccc3[nH]2)cc1OC [Example 12, [2-(3,4-Dimethoxybenzyl)-1H-benzoimidazol-5-yl]-phenyl-methanone] | 0.081 to 0.14 µM | – | 100% | 7.74 µM | –
